Results as given in patent US6413542B1, “Direct pour-on antiparasitic skin solution and methods for treating, preventing and controlling myasis” (Merial, priority 1996, dated 2002).

What was measured:
Boophilus microplus [1] = experiment: Example 2: efficacy of pour-on skin solutions against Boophilus microplus on artificially infested cattle (tick counts); type: in vivo; conditions: skin solution containing 1% compound A, 1 ml per 10 kg along the line of the back
Description: Study of the efficacy of skin solutions according to the invention containing, respectively, 0.25, 0.50 and 1% compound A to combat Boophilus microplus.
The study was performed on 16 young male castrated Herefords (weight ranging between 114 and 172 kg).
Three skin solutions according to Example 1 were prepared:
A placebo was prepared, which differed from the skin solutions according to the invention in that it contained no compound A.
In the studies, 1 ml of skin solution or of placebo were used per 10 kg of animal weight.
The dose volume was applied along the line of the animal's back, from the head to the base of the tail.
Between days-24 and -1, the animals were artificially infested on 11 occasions with 2,500 Boophilus microplus larvae. The aim of 24-day infestation is to ensure that all of the stages of Boophilus microplus are present on the animal (eggs, larvae, adults).
On day 0, the animals receive one of the skin solutions or the placebo.
Before the skin solutions or the placebo are applied, the number of ticks present on the various animals in the different groups are counted.
The blood-engorged female ticks which become detached are included in the count.

[2] = Solubility of compound A in the solvent acetyl tributyl citrate; type: physicochemical
Excerpt: The solvent will be used in proportion with the concentration of the compound I and its solubility in this solvent.
It will be sought to have the lowest possible volume.

Boophilus microplus [3] = experiment: Example 4: efficacy over time of skin solutions on cattle re-infested with larvae for 13 weeks; type: in vivo; design: Efficacy index: scale not given here
Excerpt: Study of efficacy over time.
Skin solutions according to the invention containing 0.25, 0.5 or 1% compound A where used in this example.
The composition of these solutions is the same as for the above examples.
The cattle were preinfested so as to have all of the stages of Boophilus microplus present (infestation with 5,000 larvae, 22 days, 15 days and 8 days before application of the skin solution).
After application of the skin solutions, the cattle are again infested with the larvae for 13 weeks, to determine the efficacy of the three concentrations.

N#Cc1nn(-c2c(Cl)cc(C(F)(F)F)cc2Cl)c(N)c1[S+]([O-])C(F)(F)F (stereo not drawn) [compound A, 1-[2,6-Cl2 4-CF3phenyl]3-CN 4-[SO-CF3]5-NH2pyrazole]
efficacy (Boophilus microplus [1]): 100% | solubility [2]: 4.3 % m/V | Efficacy index (Boophilus microplus [3]; 0.25% solution, week 1 of infestation after treatment): 97.6 | Efficacy index (Boophilus microplus [3]; 0.25% solution, week 2 of infestation after treatment): 98.8 | Efficacy index (Boophilus microplus [3]; 0.25% solution, week 3 of infestation after treatment): 99.7 | Efficacy index (Boophilus microplus [3]; 0.25% solution, week 4 of infestation after treatment): 99.3 | Efficacy index (Boophilus microplus [3]; 0.25% solution, week 5 of infestation after treatment): 96.7 | Efficacy index (Boophilus microplus [3]; 0.25% solution, week 6 of infestation after treatment): 98.6 | Efficacy index (Boophilus microplus [3]; 0.25% solution, week 7 of infestation after treatment): 92.4 | Efficacy index (Boophilus microplus [3]; 0.25% solution, week 8 of infestation after treatment): 85.8 | Efficacy index (Boophilus microplus [3]; 0.25% solution, week 9 of infestation after treatment): 28.0 | Efficacy index (Boophilus microplus [3]; 0.25% solution, week 10 of infestation after treatment): 23.0 | Efficacy index (Boophilus microplus [3]; 0.25% solution, week 11 of infestation after treatment): 18.9 | Efficacy index (Boophilus microplus [3]; 0.25% solution, week 12 of infestation after treatment): 1.7 | Efficacy index (Boophilus microplus [3]; 0.25% solution, week 13 of infestation after treatment): 8.4 | Efficacy index (Boophilus microplus [3]; 0.5% solution, week 1 of infestation after treatment): 100 | Efficacy index (Boophilus microplus [3]; 0.5% solution, week 2 of infestation after treatment): 100 | Efficacy index (Boophilus microplus [3]; 0.5% solution, week 3 of infestation after treatment): 100 | Efficacy index (Boophilus microplus [3]; 0.5% solution, week 4 of infestation after treatment): 100 | Efficacy index (Boophilus microplus [3]; 0.5% solution, week 5 of infestation after treatment): 92.9 | Efficacy index (Boophilus microplus [3]; 0.5% solution, week 6 of infestation after treatment): 93.2 | Efficacy index (Boophilus microplus [3]; 0.5% solution, week 7 of infestation after treatment): 88.6 | Efficacy index (Boophilus microplus [3]; 0.5% solution, week 8 of infestation after treatment): 83.4 | Efficacy index (Boophilus microplus [3]; 0.5% solution, week 9 of infestation after treatment): 37.9 | Efficacy index (Boophilus microplus [3]; 0.5% solution, week 10 of infestation after treatment): 41.4 | Efficacy index (Boophilus microplus [3]; 0.5% solution, week 11 of infestation after treatment): 55.2 | Efficacy index (Boophilus microplus [3]; 0.5% solution, week 12 of infestation after treatment): 37.3 | Efficacy index (Boophilus microplus [3]; 0.5% solution, week 13 of infestation after treatment): 48.5 | Efficacy index (Boophilus microplus [3]; 1.0% solution, week 1 of infestation after treatment): 100 | Efficacy index (Boophilus microplus [3]; 1.0% solution, week 2 of infestation after treatment): 100 | Efficacy index (Boophilus microplus [3]; 1.0% solution, week 3 of infestation after treatment): 100 | Efficacy index (Boophilus microplus [3]; 1.0% solution, week 4 of infestation after treatment): 100 | Efficacy index (Boophilus microplus [3]; 1.0% solution, week 5 of infestation after treatment): 100 | Efficacy index (Boophilus microplus [3]; 1.0% solution, week 6 of infestation after treatment): 100 | Efficacy index (Boophilus microplus [3]; 1.0% solution, week 7 of infestation after treatment): 99.7 | Efficacy index (Boophilus microplus [3]; 1.0% solution, week 8 of infestation after treatment): 100 | Efficacy index (Boophilus microplus [3]; 1.0% solution, week 9 of infestation after treatment): 79.8 | Efficacy index (Boophilus microplus [3]; 1.0% solution, week 10 of infestation after treatment): 65.3 | Efficacy index (Boophilus microplus [3]; 1.0% solution, week 11 of infestation after treatment): 61.5 | Efficacy index (Boophilus microplus [3]; 1.0% solution, week 12 of infestation after treatment): 32.2 | Efficacy index (Boophilus microplus [3]; 1.0% solution, week 13 of infestation after treatment): 46.4 | period of efficacy against Boophilus microplus (Boophilus microplus [3]; pour-on skin solutions, cattle): two
